From ChEMBL document CHEMBL1159126, “Salicylanilide carbamates: antitubercular agents active against multidrug-resistant Mycobacterium tuberculosis strains” (Bioorg Med Chem, 2010)
Converted amounts (≈) assume the structure as drawn.

Columns and labels:
Test in all cases: microbe, parasite or virus in culture
[1] = system: Mycobacterium tuberculosis; details: isolate 7357/98, 504 h
[2] = system: Mycobacterium tuberculosis; details: isolate Praha 1, 336 h
[3] = system: Mycobacterium tuberculosis; details: isolate 2092/05, 504 h
[4] = system: Mycobacterium tuberculosis; details: isolate 9449/06, 504 h
[5] = system: Mycobacterium tuberculosis; details: isolate Praha 1, 504 h
[6] = system: Mycobacterium tuberculosis; details: isolate 7357/98, 336 h
[7] = system: Mycobacterium tuberculosis; details: isolate 9449/06, 336 h
[8] = system: Mycobacterium tuberculosis; details: isolate Praha 128, 504 h
[9] = system: Mycobacterium tuberculosis; details: isolate 2092/05, 336 h
[10] = system: Mycobacterium tuberculosis; details: isolate Praha 128, 336 h

Compound | MIC [1] [µM] | MIC [2] [µM] | MIC [3] [µM] | MIC [4] [µM] | MIC [5] [µM] | MIC [6] [µM] | MIC [7] [µM] | MIC [8] [µM] | MIC [9] [µM] | MIC [10] [µM]
CCCCCCNC(=O)Oc1ccc(Cl)cc1C(=O)Nc1ccc(Cl)c(Cl)c1 | 1 (≈ 0.444 µg/mL) | 0.5 (≈ 0.222 µg/mL) | 0.5 (≈ 0.222 µg/mL) | 0.5 (≈ 0.222 µg/mL) | 1 (≈ 0.444 µg/mL) | 0.5 (≈ 0.222 µg/mL) | 0.5 (≈ 0.222 µg/mL) | 0.5 (≈ 0.222 µg/mL) | 0.5 (≈ 0.222 µg/mL) | 0.5 (≈ 0.222 µg/mL)
CCNC(=O)Oc1ccc(Cl)cc1C(=O)Nc1ccc(Cl)c(Cl)c1 | 1 (≈ 0.388 µg/mL) | 0.5 (≈ 0.194 µg/mL) | 0.5 (≈ 0.194 µg/mL) | 0.5 (≈ 0.194 µg/mL) | 1 (≈ 0.388 µg/mL) | 0.5 (≈ 0.194 µg/mL) | 0.5 (≈ 0.194 µg/mL) | 0.5 (≈ 0.194 µg/mL) | 0.5 (≈ 0.194 µg/mL) | 0.5 (≈ 0.194 µg/mL)
CCCCNC(=O)Oc1ccc(Cl)cc1C(=O)Nc1ccc(Cl)c(Cl)c1 | 1 (≈ 0.416 µg/mL) | 0.5 (≈ 0.208 µg/mL) | 1 (≈ 0.416 µg/mL) | 0.5 (≈ 0.208 µg/mL) | 1 (≈ 0.416 µg/mL) | 0.5 (≈ 0.208 µg/mL) | 1 (≈ 0.416 µg/mL) | 1 (≈ 0.416 µg/mL) | 0.5 (≈ 0.208 µg/mL) | 0.5 (≈ 0.208 µg/mL)
CCCCCNC(=O)Oc1ccc(Cl)cc1C(=O)Nc1ccc(Cl)c(Cl)c1 | 0.5 (≈ 0.215 µg/mL) | 0.5 (≈ 0.215 µg/mL) | 0.5 (≈ 0.215 µg/mL) | 0.5 (≈ 0.215 µg/mL) | 1 (≈ 0.43 µg/mL) | 0.5 (≈ 0.215 µg/mL) | 0.5 (≈ 0.215 µg/mL) | 0.5 (≈ 0.215 µg/mL) | 0.5 (≈ 0.215 µg/mL) | 0.5 (≈ 0.215 µg/mL)
CCCCCNC(=O)Oc1ccc(Cl)cc1C(=O)Nc1ccc(Cl)cc1 | 2 (≈ 0.791 µg/mL) | 1 (≈ 0.395 µg/mL) | 1 (≈ 0.395 µg/mL) | 1 (≈ 0.395 µg/mL) | 2 (≈ 0.791 µg/mL) | 1 (≈ 0.395 µg/mL) | 1 (≈ 0.395 µg/mL) | 1 (≈ 0.395 µg/mL) | 1 (≈ 0.395 µg/mL) | 1 (≈ 0.395 µg/mL)
CCCCCCCNC(=O)Oc1ccc(Cl)cc1C(=O)Nc1ccc(Cl)c(Cl)c1 | 0.5 (≈ 0.229 µg/mL) | 0.5 (≈ 0.229 µg/mL) | 1 (≈ 0.458 µg/mL) | 0.5 (≈ 0.229 µg/mL) | 1 (≈ 0.458 µg/mL) | 0.5 (≈ 0.229 µg/mL) | 0.5 (≈ 0.229 µg/mL) | 1 (≈ 0.458 µg/mL) | 0.5 (≈ 0.229 µg/mL) | 0.5 (≈ 0.229 µg/mL)
CCCCCCCCNC(=O)Oc1ccc(Cl)cc1C(=O)Nc1ccc(Cl)c(Cl)c1 | 1 (≈ 0.472 µg/mL) | 1 (≈ 0.472 µg/mL) | 1 (≈ 0.472 µg/mL) | 0.5 (≈ 0.236 µg/mL) | 2 (≈ 0.944 µg/mL) | 1 (≈ 0.472 µg/mL) | 1 (≈ 0.472 µg/mL) | 1 (≈ 0.472 µg/mL) | 0.5 (≈ 0.236 µg/mL) | 0.5 (≈ 0.236 µg/mL)
CCCCCCNC(=O)Oc1ccc(Cl)cc1C(=O)Nc1cccc(Cl)c1 | 1 (≈ 0.409 µg/mL) | 1 (≈ 0.409 µg/mL) | 2 (≈ 0.819 µg/mL) | 1 (≈ 0.409 µg/mL) | 2 (≈ 0.819 µg/mL) | 1 (≈ 0.409 µg/mL) | 1 (≈ 0.409 µg/mL) | 2 (≈ 0.819 µg/mL) | 1 (≈ 0.409 µg/mL) | 1 (≈ 0.409 µg/mL)
NNC(=O)c1ccncc1 [ISONIAZID] | 16 (≈ 2.19 µg/mL) | 16 (≈ 2.19 µg/mL) | 16 (≈ 2.19 µg/mL) | 16 (≈ 2.19 µg/mL) | 16 (≈ 2.19 µg/mL) | 16 (≈ 2.19 µg/mL) | 16 (≈ 2.19 µg/mL) | 16 (≈ 2.19 µg/mL) | 16 (≈ 2.19 µg/mL) | 16 (≈ 2.19 µg/mL)
